In ChEMBL document CHEMBL3132769, “Fragment growing to retain or alter the selectivity of anchored kinase hinge-binding fragments” (Medchemcomm, 2014):

Key:
[1] = target: T1, MAP kinase-activated protein kinase 5 (Homo sapiens) (UniProt Q8IW41); experiment: Inhibition of human full length PRAK expressed in baculovirus assessed as substrate phosphorylation using fluorescence-labelled peptides as substrate at 8 uM after 90 mins by microfluidic peptide phosphorylation assay
T1 sequence (whole entry): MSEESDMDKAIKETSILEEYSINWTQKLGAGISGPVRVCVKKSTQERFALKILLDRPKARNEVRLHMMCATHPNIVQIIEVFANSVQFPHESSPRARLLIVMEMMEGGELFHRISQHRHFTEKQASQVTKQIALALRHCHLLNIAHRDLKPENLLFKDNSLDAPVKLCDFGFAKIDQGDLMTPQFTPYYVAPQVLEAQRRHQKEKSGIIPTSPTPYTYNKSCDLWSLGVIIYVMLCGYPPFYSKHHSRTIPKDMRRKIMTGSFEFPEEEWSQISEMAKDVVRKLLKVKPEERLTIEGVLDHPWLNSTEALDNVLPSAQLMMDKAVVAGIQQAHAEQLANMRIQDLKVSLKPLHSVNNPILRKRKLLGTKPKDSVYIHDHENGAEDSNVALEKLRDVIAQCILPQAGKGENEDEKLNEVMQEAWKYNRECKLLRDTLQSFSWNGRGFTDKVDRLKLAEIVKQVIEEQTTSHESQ

[2] = target: T2, Calcium/calmodulin-dependent protein kinase type IV (Homo sapiens) (UniProt Q16566); experiment: Inhibition of human full length CAMK4 expressed in baculovirus assessed as substrate phosphorylation using fluorescence-labelled peptides as substrate at 0.06 uM after 90 mins by microfluidic peptide phosphorylation assay
T2 sequence (whole entry): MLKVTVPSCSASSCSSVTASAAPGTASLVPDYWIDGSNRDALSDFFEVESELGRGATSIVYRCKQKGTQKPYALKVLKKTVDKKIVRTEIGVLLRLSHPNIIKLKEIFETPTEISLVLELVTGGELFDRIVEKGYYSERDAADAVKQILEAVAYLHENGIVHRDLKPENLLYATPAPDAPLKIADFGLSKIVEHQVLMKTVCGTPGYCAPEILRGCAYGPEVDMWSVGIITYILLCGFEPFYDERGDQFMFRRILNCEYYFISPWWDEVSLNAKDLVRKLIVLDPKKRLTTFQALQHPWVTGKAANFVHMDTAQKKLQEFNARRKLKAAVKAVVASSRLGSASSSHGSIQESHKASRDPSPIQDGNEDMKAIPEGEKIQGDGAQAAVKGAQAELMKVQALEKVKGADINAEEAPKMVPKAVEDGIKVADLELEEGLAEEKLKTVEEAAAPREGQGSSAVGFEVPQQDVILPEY

[3] = target: Protein kinase C alpha type (Homo sapiens) (UniProt P17252); experiment: Inhibition of human truncated PKC alpha expressed in baculovirus assessed as substrate phosphorylation using fluorescence-labelled peptides as substrate at 2 uM after 90 mins by microfluidic peptide phosphorylation assay
[4] = target: Mitogen-activated protein kinase 1 (Homo sapiens) (UniProt P28482); experiment: Inhibition of human full length ERK2 expressed in Escherichia coli cell assessed as substrate phosphorylation using fluorescence-labelled peptides as substrate at 9 uM after 90 mins by microfluidic peptide phosphorylation assay
Mitogen-activated protein kinase 1 (Homo sapiens), sequence (P28482 whole entry): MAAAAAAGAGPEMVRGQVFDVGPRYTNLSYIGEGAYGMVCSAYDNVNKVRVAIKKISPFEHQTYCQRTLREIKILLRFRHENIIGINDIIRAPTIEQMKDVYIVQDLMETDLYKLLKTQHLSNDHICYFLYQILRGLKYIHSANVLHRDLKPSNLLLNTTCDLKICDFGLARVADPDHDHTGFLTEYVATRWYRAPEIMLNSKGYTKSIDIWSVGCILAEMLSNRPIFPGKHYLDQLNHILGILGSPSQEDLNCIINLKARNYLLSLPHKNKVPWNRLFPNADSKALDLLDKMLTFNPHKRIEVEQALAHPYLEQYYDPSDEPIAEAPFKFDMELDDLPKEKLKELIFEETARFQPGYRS

[5] = target: Fibroblast growth factor receptor 2 (Homo sapiens) (UniProt P21802); conditions: 0.1 uM
Fibroblast growth factor receptor 2 (Homo sapiens), sequence (P21802 22-821 limits assumed): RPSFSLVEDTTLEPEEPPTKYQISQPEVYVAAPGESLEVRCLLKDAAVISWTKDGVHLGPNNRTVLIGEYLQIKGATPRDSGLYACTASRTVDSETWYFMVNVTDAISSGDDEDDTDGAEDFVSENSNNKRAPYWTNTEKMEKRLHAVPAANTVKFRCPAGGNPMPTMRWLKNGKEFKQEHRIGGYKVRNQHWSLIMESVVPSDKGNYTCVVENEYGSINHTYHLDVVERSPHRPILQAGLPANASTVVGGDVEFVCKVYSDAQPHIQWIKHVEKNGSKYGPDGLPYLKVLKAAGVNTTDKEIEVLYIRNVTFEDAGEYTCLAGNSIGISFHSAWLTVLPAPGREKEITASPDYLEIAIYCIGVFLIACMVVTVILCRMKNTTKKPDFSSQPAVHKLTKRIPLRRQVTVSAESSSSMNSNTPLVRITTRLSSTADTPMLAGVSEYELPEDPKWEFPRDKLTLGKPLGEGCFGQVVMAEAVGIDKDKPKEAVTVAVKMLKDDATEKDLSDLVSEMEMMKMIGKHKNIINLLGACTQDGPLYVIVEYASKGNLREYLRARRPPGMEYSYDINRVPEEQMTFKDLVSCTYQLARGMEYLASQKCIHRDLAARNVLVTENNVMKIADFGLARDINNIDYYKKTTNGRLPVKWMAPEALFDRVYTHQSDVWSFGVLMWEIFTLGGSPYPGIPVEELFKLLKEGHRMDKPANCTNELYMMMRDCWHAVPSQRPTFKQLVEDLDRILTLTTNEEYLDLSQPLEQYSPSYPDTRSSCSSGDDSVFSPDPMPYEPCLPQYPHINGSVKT
Description: Inhibition of human FGFR2 catalytic domain expressed in baculovirus assessed as substrate phosphorylation using fluorescence-labelled peptides as substrate at 0.1 uM after 90 mins by microfluidic peptide phosphorylation assay

[6] = target: Protein kinase C delta type (Homo sapiens) (UniProt Q05655); experiment: Inhibition of human truncated PKC delta expressed in baculovirus assessed as substrate phosphorylation using fluorescence-labelled peptides as substrate at 1000 uM after 90 mins by microfluidic peptide phosphorylation assay
Protein kinase C delta type (Homo sapiens), sequence (Q05655 whole entry, looked up, the tested form may be a part): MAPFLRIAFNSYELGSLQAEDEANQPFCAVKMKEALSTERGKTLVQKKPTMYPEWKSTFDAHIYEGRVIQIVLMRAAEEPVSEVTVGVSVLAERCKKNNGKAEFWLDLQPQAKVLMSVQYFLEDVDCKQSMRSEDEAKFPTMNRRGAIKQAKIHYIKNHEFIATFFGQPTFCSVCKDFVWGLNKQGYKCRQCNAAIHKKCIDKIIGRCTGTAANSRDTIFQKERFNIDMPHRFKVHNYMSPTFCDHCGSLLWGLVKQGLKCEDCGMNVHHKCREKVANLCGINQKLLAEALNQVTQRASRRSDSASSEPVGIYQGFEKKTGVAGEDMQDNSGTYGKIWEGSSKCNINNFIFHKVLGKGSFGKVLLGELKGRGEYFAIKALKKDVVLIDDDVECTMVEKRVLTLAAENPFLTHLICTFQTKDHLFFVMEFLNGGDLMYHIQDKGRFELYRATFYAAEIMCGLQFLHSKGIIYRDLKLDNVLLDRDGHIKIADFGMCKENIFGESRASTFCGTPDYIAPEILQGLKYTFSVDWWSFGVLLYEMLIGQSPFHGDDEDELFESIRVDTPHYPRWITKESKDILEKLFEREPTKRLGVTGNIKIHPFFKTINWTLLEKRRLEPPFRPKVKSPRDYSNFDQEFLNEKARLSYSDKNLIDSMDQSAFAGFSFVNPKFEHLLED

[7] = tested on: T3, Receptor-type tyrosine-protein kinase FLT3 (Homo sapiens), P36888 [D835Y]; experiment: Inhibition of human FLT3 D835Y mutant catalytic domain expressed in baculovirus assessed as substrate phosphorylation using fluorescence-labelled peptides as substrate at 1000 uM after 90 mins by microfluidic peptide phosphorylation assay
T3 sequence (whole entry): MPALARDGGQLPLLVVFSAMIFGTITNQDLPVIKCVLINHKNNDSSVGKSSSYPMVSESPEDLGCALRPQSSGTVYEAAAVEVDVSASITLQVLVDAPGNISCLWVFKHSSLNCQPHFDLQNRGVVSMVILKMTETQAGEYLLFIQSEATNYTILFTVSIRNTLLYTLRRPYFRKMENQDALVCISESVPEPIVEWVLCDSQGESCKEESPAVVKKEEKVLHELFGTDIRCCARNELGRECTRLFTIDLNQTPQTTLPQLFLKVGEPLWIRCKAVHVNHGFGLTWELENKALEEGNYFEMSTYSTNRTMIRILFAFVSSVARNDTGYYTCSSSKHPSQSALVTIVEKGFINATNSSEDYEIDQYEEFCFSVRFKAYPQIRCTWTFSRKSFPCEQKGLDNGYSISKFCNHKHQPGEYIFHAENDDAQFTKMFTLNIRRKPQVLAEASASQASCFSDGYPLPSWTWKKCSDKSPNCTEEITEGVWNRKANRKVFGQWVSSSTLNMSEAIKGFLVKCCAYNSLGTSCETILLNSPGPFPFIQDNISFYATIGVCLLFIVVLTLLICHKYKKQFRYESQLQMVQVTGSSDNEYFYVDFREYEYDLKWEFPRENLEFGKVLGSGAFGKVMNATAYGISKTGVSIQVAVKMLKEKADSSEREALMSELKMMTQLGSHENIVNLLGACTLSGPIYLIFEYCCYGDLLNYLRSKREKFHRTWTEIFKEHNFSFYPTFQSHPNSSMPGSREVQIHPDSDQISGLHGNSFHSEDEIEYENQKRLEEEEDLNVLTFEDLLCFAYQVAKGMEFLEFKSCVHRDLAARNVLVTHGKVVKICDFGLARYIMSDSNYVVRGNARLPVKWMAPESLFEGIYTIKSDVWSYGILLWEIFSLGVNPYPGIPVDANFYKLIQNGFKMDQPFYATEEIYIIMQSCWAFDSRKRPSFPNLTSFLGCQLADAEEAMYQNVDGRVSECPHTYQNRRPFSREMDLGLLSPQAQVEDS

For `NCC1CCN(c2ncnc3[nH]ccc23)CC1`, the inhibition [1] was 51.5%.

`NC1(Cc2ccc(Cl)cc2)CCN(c2ncnc3[nH]ccc23)CC1` was tested, and the inhibition [2] was 6%.

In the case of `NC1CCN(c2ncnc3[nH]ccc23)CC1`, the inhibition [3] is reported as 18%.

`NCC1CN(c2ncnc3[nH]c4cnccc4c23)CCO1` (configuration not stated) gave an inhibition [4] of 1.5%.

`C[C@H](CN(C)C)Oc1nc(Nc2cc3cccc(Cl)c3cn2)cnc1C#N` was tested, and the inhibition [5] was 0%.

Molecule `c1cnc2[nH]ccc2c1` has an inhibition [6] of 45.5% and an inhibition [7] of 76%.
